Experimental data taken from patent publication US20260234165A1, “MACROCYCLIC COMPOUNDS, PREPARATION METHOD THEREFOR, AND USE THEREOF” (GENFLEET THERAPEUTICS (SHANGHAI) INC., priority 2004, published 2026).
Where two headings read alike, the source gives them in different places.

What was measured:
[1] = test system: p-ERK in NCI-H441 cells (KRAS G12V mutation); test: Cell p-ERK assay (HTRF) in NCI-H441 cells; type: cell-based, human; conditions: NCI-H441 cells, 3 h compound incubation, HTRF p-ERK T202/Y204, read-out: H441 p-ERK IC50
Outline: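 AsPC-1 (10000/well) or NCI-H441 (20000/well) cells were seeded in RPMI-1640 with 10% FBS, grown overnight, then exposed to 3.16-fold compound dilutions (0.1% DMSO) for 3 h at 37 °C. Lysates were read for phospho-ERK T202/Y204 by HTRF; IC50 came from four-parameter fits of inhibition versus DMSO and blank wells.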

[2] = test system: p-ERK in AsPC-1 cells (KRAS G12D mutation); test: Cell p-ERK assay (HTRF) in AsPC-1 cells; type: cell-based, human; conditions: AsPC-1 cells, 3 h compound incubation, HTRF p-ERK T202/Y204, read-out: AsPC-1 p-ERK IC50
Method: AsPC-1 cells were purchased from ATCC, Cat. No. CRL-1682: NCI-H441 cells were purchased from ATCC, Cat. No. HTB-174: RPMI-1640 medium was purchased from Gibco, Cat. No. I1875-093: FBS was purchased from Gibco, Cat. No. 10099-141C: penicillin/streptomycin double-antibiotic solution (PS) was purchased from Gibco, Cat. No. 15140-122: trypsin (containing EDTA) was purchased from Gibco, Cat. No. 25200-072; DMSO was purchased from VWRAMRESCO, Cat. No. 0231-500ML; 96-well cell culture plates were purchased from Corning, Cat. No. 3599: white-bottomed, opaque 96-well plates were purchased from Cisbio, Cat. No. 66PL96025; Advance ERK phospho-T202/Y204 kit was purchased from Cisbio, Cat. No. 64AERPEH; cell counter was purchased from CHEMOMETEC, model: NC-200; microplate reader was purchased from PerkinElmer, model: EnVision.
AsPC-1, a human pancreatic cancer cell strain endogenously containing a KRAS^G12D mutation, was cultured in a complete medium containing RPMI-1640+10% FBS+1% PS. NCI-H441, a human non-small cell lung cancer cell strain endogenously containing a KRAS^G12V mutation, was cultured in a complete medium containing RPMI-1640+10% FBS+1% PS.
The cells were digested with trypsin (containing EDTA), collected in their corresponding complete media, and counted. The density of the cell suspensions was adjusted with their corresponding complete media, and 10000 AsPC-1 cells or 20000 NCI-H441 cells per well were seeded into a 96-well cell culture plate, with the volume of the medium in each well being 80 μL.
The cell culture plate was incubated in an incubator at 37° C. with 5% CO2 overnight. A series of 3.16-fold gradient dilutions of a 1000- compound stock solution were prepared with DMSO, and then diluted 200-fold with the complete medium described above to give 5′ compound stock solutions. On the day after cell seeding, 20 μL of the 5× compound stock solution was added to each cell culture well. As a result, the final concentration of the compound in the cell culture well became 1×, and the DMSO content in the well was 0.1%. In addition to the compound-treated wells described above, cell-containing DMSO control wells were also set. A complete medium containing 0.5% DMSO was added at 20 μL/well. After the mixture was well mixed, the culture plate was incubated in the incubator at 37° C. with 5% CO2 for another 3 h. The medium was then removed from the culture wells, and 50 μL of cell lysis buffer (from Advance ERK phospho-T202,Y204 kit) was added to each well. The mixture was well mixed and incubated for 30 min. Then, 16 μL of the mixture was transferred to a white-bottomed, opaque 96-well assay plate, and separately, 16 μL of cell lysis buffer was added to additional wells (serving as blank wells) in the assay plate. After the transfer was completed, 4 μL of p-ERK HTRF antibody mixture (from Advance ERK phospho-T202/Y204 kit) was added to each well of the assay plate, followed by a 4-hour incubation. The HTRF signal values (RLU) were then measured using a microplate reader, and the inhibition rate of the compound against p-ERK levels was calculated as follows: IR (%)=(RLUDMSO−RLUcompound)/(RLUDMSO−RLUblank)×100%, where RLUDMSO is the average HTRF signal value from the DMSO control well samples, RLUblank is the average HTRF signal value from the blank well samples, and RLUcompound is the HTRF signal value from the compound-treated well samples. Using an XLfit software, the IR (%) values were plotted against the logarithm of the compound concentrations, and the dose-response curves were fitted using the four-parameter method to calculate the IC50 values.

Row | SMILES | IC50 ([1]; Homo sapiens, NCI-H441, 3 h) | IC50 ([2]; Homo sapiens, ASPC1, 3 h) | IC50 [1] | IC50 [2]
1 | CCn1c(-c2cc(OCCN3CCOCC34CC4)cnc2[C@H](C)OC)c2c3cc(ccc31)-c1csc(n1)C[C@H](NC(=O)C1[C@@H](C)[C@H]1C)C(=O)N1CCC[C@H](N1)C(=O)OCC1(CC1)C2 (stereo partly drawn) [Compound Z385, (1r,2R,3S)—N-((3′S,4′S,Z)-2′-(5-(2-(7-oxa-4-azaspiro[2,5]octan-4-yl)ethoxy)-2-((S)-1-methoxyethyl)pyridin-3-yl)-1-ethyl-5′,7′-dioxospiro[cyclopropane-1,10′-8-oxa-2(4,2)-thiazola-1(5,3)-indola-6(1,3)-pyridazinacycloundecaphan]-4′-yl)-2,3-dimethylcyclopropane-1-carboxamide] | 20.7 nM | 33.5 nM |  | 
2 | CCn1c(-c2cc(C#CC(=O)N3CCCOCC3)cnc2[C@H](C)OC)c2c3cc(ccc31)-c1csc(n1)C[C@H](NC(=O)[C@H]1[C@H](C)[C@@H]1C)C(=O)N1CCC[C@H](N1)C(=O)OCC(C)(C)C2 [Compound Z810A, (1r,2R,3S)—N-((6^3S,4S,Z)-1^2-ethyl-1^2-(5-(3-(1,4-oxazepan-4-yl)-3-oxoprop-1-yn-1-yl)-2-((S)-1-methoxyethyl)pyridin-3-yl)-10,10-dimethyl-5,7-dioxo-6^1,6^2,6^3,6^4,6^5,6^6hexahydro-1^1H-8-oxa-2(4,2)-thiazola-1(5,3)-indola-6(1,3)-pyridazinacycloundecaphane-4-yl)-2,3-dimethylcyclopropane-1-carboxamide] |  | 1.22 nM | 0.63 nM | 
3 | CCn1c(-c2cc(OCCN3CCS(=O)(=O)CC3)cnc2[C@H](C)OC)c2c3cc(ccc31)-c1csc(n1)C[C@H](NC(=O)[C@H]1[C@H](C)[C@@H]1C)C(=O)N1CCC[C@H](N1)C(=O)OCC(C)(C)C2 (atropisomer, axis not shown; (Sa)) [Compound Z470, (1r,2R,3S)—N-((6^3S,4S,Z)—(Sa)-1^2-(5-(2-(1,1-dioxidothiomorpholino)ethoxy)-2-((S)-1-methoxyethyl)pyridin-3-yl)-1^1-ethyl-10,10-dimethyl-5,7-dioxo-6^1,6^2,6^3,6^4,6^5,6^6-hexahydro-1^1H-8-oxa-2(4,2)-thiazola-1(5,3)-indola-6(1,3)-pyridazinacycloundecaphane-4-yl)-2,3-dimethylcyclopropane-1-carboxamide] |  |  | 69.4 nM | 35.3 nM

Next, values leading:

Row | IC50 ([1]; Homo sapiens, NCI-H441, 3 h) | IC50 ([2]; Homo sapiens, ASPC1, 3 h) | IC50 [1] | IC50 [2] | SMILES
4 | 2.16 nM | 3.57 nM |  |  | CCn1c(-c2cc(C#CCN3CCC3)cnc2[C@H](C)OC)c2c3cc(ccc31)-c1csc(n1)C[C@H](NC(=O)CC1CC1)C(=O)N1CCC[C@H](N1)C(=O)OCC(C)(C)C2 [Compound Z999, N-((6^3S,4S,Z)-1^2-(5-(3-(azetidin-1-yl)prop-1-yn-1-yl)-2-((S)-1-methoxyethyl)pyridin-3-yl)-1^1-ethyl-10,10-dimethyl-5,7-dioxo-6^1,6^2,6^3,6^4,6^5,6^6-hexahydro-1^1H-8-oxa-2(4,2)-thiazola-1(5,3)-indola-6(1,3)-pyridazinacycloundecaphane-4-yl)-2-cyclopropylacetamide]
5 |  |  | 0.15 nM | 0.26 nM | CCn1c(-c2cc(C#CCN3CCS(=O)(=O)CC3)cnc2C(C)OC)c2c3cc(ccc31)-c1csc(n1)CC(NC(=O)CC1CC1)C(=O)N1CCCC(N1)C(=O)OCC(C)(C)C2 (atropisomer, axis not shown; (Ra)) [Compound Z962, 2-cyclopropyl-N-((6^3S,4S,Z)—(Ra)-1^2-(5-(3-(1,1-dioxidothiomorpholino)prop-1-yn-1-yl)-2-((S)-1-methoxyethyl)pyridin-3-yl)-1^1-ethyl-10,10-dimethyl-5,7-dioxo-6^1,6^2,6^3,6^4,6^5,6^6-hexahydro-1^1H-8-oxa-2(4,2)-thiazola-1(5,3)-indola-6(1,3)-pyridazinacycloundecaphane-4-yl)acetamide]
